The source made the active and inactive calls. The calls are words filed in the database; no cut-off is given here.
How the values were obtained:
[1] = biological target: T1, RNA demethylase ALKBH5 (Homo sapiens, UniProt Q6P6C2); experiment: Inhibition of ALKBH5 (66 to 292 residues) (unknown origin) extracted from Escherichia coli BL21 (DE3) cells using m6A ssDNA as substrate measured after 300 mins by fluorescence polarization assay
Target sequence in this assay (Q6P6C2 whole entry, the tested form may be a part): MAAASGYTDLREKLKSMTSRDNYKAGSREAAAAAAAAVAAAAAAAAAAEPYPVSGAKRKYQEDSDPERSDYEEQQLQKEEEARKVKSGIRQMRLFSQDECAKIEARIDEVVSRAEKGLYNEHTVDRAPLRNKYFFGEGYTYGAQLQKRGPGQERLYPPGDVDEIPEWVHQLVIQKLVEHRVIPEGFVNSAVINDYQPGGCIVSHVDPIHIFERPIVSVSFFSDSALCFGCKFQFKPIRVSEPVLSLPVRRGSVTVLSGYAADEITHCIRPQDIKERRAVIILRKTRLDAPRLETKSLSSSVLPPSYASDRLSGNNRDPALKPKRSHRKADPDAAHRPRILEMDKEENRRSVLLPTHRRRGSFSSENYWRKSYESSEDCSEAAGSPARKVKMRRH

[2] = system: MOLM-13; experiment: Downregulation of AXL protein expression levels in human MOLM-13 cells at 20 to 80 uM incubated for 72 hrs by Western blot analysis; format: functional, cell-based; conditions: dose 20-80 µM
[3] = biological target: T1, RNA demethylase ALKBH5; experiment: Binding affinity to ALKBH5 (66 to 292 residues) (unknown origin) extracted from Escherichia coli BL21 (DE3) cells assessed as dissociation constant incubated for 1 hrs by MST analysis
Target sequence in this assay (Q6P6C2 whole entry, the tested form may be a part): as above

[4] = biological target: T1, RNA demethylase ALKBH5; experiment: Inhibition of ALKBH5 (66 to 292 residues) (unknown origin) extracted from Escherichia coli BL21 (DE3) cells using m6A ssDNA as substrate assessed as maximum inactivation rate constant (Kinact) measured after 6 hrs by fluorescence polarization assay
Target sequence in this assay (Q6P6C2 2-394 limits assumed): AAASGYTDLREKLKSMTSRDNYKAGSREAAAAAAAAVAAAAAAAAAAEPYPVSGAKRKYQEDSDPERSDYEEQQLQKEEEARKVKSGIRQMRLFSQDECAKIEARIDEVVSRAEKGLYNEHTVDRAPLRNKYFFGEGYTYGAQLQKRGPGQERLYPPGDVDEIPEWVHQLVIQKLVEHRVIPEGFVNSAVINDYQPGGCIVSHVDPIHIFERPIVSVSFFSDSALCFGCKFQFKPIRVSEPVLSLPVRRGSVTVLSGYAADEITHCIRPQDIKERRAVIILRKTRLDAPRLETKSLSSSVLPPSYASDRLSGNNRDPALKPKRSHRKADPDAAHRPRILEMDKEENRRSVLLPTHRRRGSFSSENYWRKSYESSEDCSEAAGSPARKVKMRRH

[5] = biological target: T1, RNA demethylase ALKBH5; experiment: Inhibition of ALKBH5 (66 to 292 residues) (unknown origin) demethylase activity extracted from Escherichia coli BL21 (DE3) cells at 200 uM preincubated for 3 hrs and measured after compound washout by small molecule dilution method
Target sequence in this assay (Q6P6C2 2-394 limits assumed): as above

[6] = biological target: T2, Alpha-ketoglutarate-dependent dioxygenase FTO (Homo sapiens, UniProt Q9C0B1); experiment: Induction of thermal stabilization of FTO (32 to 505 residues) (unknown origin) extracted from Escherichia coli BL21 (DE3) cells assessed as change in melting temperature by thermal shift assay
Target sequence in this assay (Q9C0B1 whole entry, looked up, the tested form may be a part): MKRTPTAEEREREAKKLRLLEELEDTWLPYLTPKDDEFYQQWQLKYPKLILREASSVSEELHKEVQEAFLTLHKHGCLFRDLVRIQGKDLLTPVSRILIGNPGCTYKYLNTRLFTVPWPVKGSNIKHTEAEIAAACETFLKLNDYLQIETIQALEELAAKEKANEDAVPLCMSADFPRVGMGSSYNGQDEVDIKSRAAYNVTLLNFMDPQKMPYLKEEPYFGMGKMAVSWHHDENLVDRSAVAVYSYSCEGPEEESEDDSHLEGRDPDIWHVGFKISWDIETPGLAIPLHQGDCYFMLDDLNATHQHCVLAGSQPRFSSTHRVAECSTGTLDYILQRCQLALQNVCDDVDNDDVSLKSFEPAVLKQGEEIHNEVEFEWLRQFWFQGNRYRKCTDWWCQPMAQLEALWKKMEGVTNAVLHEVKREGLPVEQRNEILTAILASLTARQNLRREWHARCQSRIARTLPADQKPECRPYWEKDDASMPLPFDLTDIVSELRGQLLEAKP

[7] = biological target: T1, RNA demethylase ALKBH5; experiment: Binding affinity to ALKBH5 (66 to 292 residues) (unknown origin) extracted from Escherichia coli BL21 (DE3) cells assessed as dissociation constant incubated for 5 hrs by MST analysis
Target sequence in this assay (Q6P6C2 whole entry, the tested form may be a part): as the sequence (Q6P6C2 whole entry, the tested form may be a part) above

[8] = biological target: T1, RNA demethylase ALKBH5; experiment: Binding affinity to ALKBH5 (66 to 292 residues) (unknown origin) extracted from Escherichia coli BL21 (DE3) cells at 1:1 protein:compound ratio by mass spectrometry analysis
Target sequence in this assay (Q6P6C2 2-394 limits assumed): as the sequence (Q6P6C2 2-394 limits assumed) above

[9] = system: MOLM-13; experiment: Induction of cell cycle arrest in human MOLM-13 cells assessed as accumulation of cells at G2/M phase at 80 uM incubated for 72 hrs by flow cytometry analysis (reference value: 17.53 %); format: functional
[10] = system: MOLM-13; experiment: Induction of apoptosis in human MOLM-13 cells assessed as late apoptotic cells at 80 uM incubated for 72 hrs by Annexin V FITC/PI staining based flow cytometry analysis (reference value: 4.28 %); format: functional
[11] = biological target: T1, RNA demethylase ALKBH5; experiment: Inhibition of ALKBH5 (66 to 292 residues) (unknown origin) extracted from Escherichia coli BL21 (DE3) cells using m6A ssDNA as substrate measured after 1 hrs by fluorescence polarization assay
Target sequence in this assay (Q6P6C2 whole entry, the tested form may be a part): as the sequence (Q6P6C2 whole entry, the tested form may be a part) above

[12] = system: RNA demethylase ALKBH5 (Homo sapiens), Q6P6C2 [K132E]; experiment: Inhibition of ALKBH5 K132E mutant (66 to 292 residues) (unknown origin) extracted from Escherichia coli BL21 (DE3) cells using m6A ssDNA as substrate at 0.5 to 100 uM incubated for 2 hrs by restriction enzyme digestion assay; conditions: dose 0.5-100 µM
[13] = biological target: T1, RNA demethylase ALKBH5; experiment: Inhibition of ALKBH5 (66 to 292 residues) (unknown origin) extracted from Escherichia coli BL21 (DE3) cells using m6A ssDNA as substrate assessed as inactivation constant (Ki) measured after 6 hrs by fluorescence polarization assay
Target sequence in this assay (Q6P6C2 whole entry, the tested form may be a part): as above

[14] = biological target: T1, RNA demethylase ALKBH5; experiment: Inhibition of ALKBH5 (66 to 292 residues) (unknown origin) extracted from Escherichia coli BL21 (DE3) cells using m6A ssDNA as substrate measured after 40 mins by fluorescence polarization assay
Target sequence in this assay (Q6P6C2 whole entry, the tested form may be a part): as above

[15] = system: MOLM-13; experiment: Induction of apoptosis in human MOLM-13 cells assessed as necrotic cells at 80 uM incubated for 72 hrs by Annexin V FITC/PI staining based flow cytometry analysis (reference value: 1.75 %); format: functional
[16] = biological target: T1, RNA demethylase ALKBH5; experiment: Inhibition of ALKBH5 (66 to 292 residues) (unknown origin) extracted from Escherichia coli BL21 (DE3) cells using m6A ssDNA as substrate at 1.25 to 10 uM incubated for 2 hrs in presence of 2-OG by TBE-PAGE based restriction enzyme digestion assay; conditions: dose 1.25-10 µM
Target sequence in this assay (Q6P6C2 2-394 limits assumed): as the sequence (Q6P6C2 2-394 limits assumed) above

[17] = biological target: T2, Alpha-ketoglutarate-dependent dioxygenase FTO; experiment: Binding affinity to FTO (32 to 505 residues) (unknown origin) extracted from Escherichia coli BL21 (DE3) cells assessed as dissociation constant by ITC assay
Target sequence in this assay (Q9C0B1 whole entry, the tested form may be a part): as the sequence (Q9C0B1 whole entry, looked up, the tested form may be a part) above

[18] = system: MOLM-13; experiment: Induction of cell cycle arrest in human MOLM-13 cells assessed as accumulation of cells at G0/G1 phase at 40 uM incubated for 72 hrs by flow cytometry analysis (reference value: 65.53 %); format: functional
[19] = system: MV4-11; experiment: Downregulation of AXL mRNA expression levels in human MV4-11 cells at 10 to 80 uM incubated for 72 hrs by qRT-PCR analysis; format: functional, cell-based; conditions: dose 10-80 µM
[20] = biological target: T1, RNA demethylase ALKBH5; experiment: Inhibition of ALKBH5 (66 to 292 residues) (unknown origin) extracted from Escherichia coli BL21 (DE3) cells using m6A ssDNA as substrate measured after 6 hrs by fluorescence polarization assay
[21] = biological target: T1, RNA demethylase ALKBH5; experiment: Inhibition of ALKBH5 (66 to 292 residues) (unknown origin) extracted from Escherichia coli BL21 (DE3) cells using m6A ssDNA as substrate measured after 180 mins by fluorescence polarization assay
[22] = biological target: T1, RNA demethylase ALKBH5; experiment: Inhibition of ALKBH5 (66 to 292 residues) (unknown origin) extracted from Escherichia coli BL21 (DE3) cells using m6A ssDNA as substrate at 5 uM incubated for 2 hrs by TBE-PAGE based restriction enzyme digestion assay
Target sequence in this assay (Q6P6C2 2-394 limits assumed): as the sequence (Q6P6C2 2-394 limits assumed) above

[23] = biological target: T1, RNA demethylase ALKBH5; experiment: Induction of thermal stabilization of wild type ALKBH5 (66 to 292 residues) (unknown origin) extracted from Escherichia coli BL21 (DE3) cells assessed as melting temperature by thermal shift assay (reference value: 47.30 degreeC)
Target sequence in this assay (Q6P6C2 2-394 limits assumed): as above

[24] = Selectivity ratio of IC50 for ALKBH3 (unknown origin) to IC50 for ALKBH5 (66 to 292 residues) (unknown origin) extracted from Escherichia coli BL21 (DE3) cells by fluorescence polarization assay
[25] = system: MOLM-13; experiment: Induction of cell cycle arrest in human MOLM-13 cells assessed as accumulation of cells at G0/G1 phase at 80 uM incubated for 72 hrs by flow cytometry analysis (reference value: 65.53 %); format: functional
[26] = biological target: T1, RNA demethylase ALKBH5; experiment: Time-dependent inhibition of ALKBH5 (66 to 292 residues) (unknown origin) demethylation activity extracted from Escherichia coli BL21 (DE3) cells using m6A ssDNA as substrate at 1 to 10 uM by TBE-PAGE based restriction enzyme digestion assay; conditions: dose 1-10 µM, time 0.5-2 hrs
[27] = Selectivity ratio of IC50 for FTO (32 to 505 residues) (unknown origin) extracted from Escherichia coli BL21 (DE3) cells to IC50 for ALKBH5 (66 to 292 residues) (unknown origin) extracted from Escherichia coli BL21 (DE3) cells by fluorescence polarization assay
[28] = biological target: T1, RNA demethylase ALKBH5; experiment: Inhibition of ALKBH5 (66 to 292 residues) (unknown origin) extracted from Escherichia coli BL21 (DE3) cells using m6A ssDNA as substrate measured after 20 mins by fluorescence polarization assay

Sequence of RNA demethylase ALKBH5 (Homo sapiens), Q6P6C2 [K132E] (Q6P6C2 whole entry K132E, the tested form may be a part): as the sequence (Q6P6C2 whole entry, the tested form may be a part) above, with K132E counted along it

Compound: O=Cc1cc(S(=O)(=O)NC(=O)c2cc(C(=O)O)ccn2)c2ccccc2c1O
- IC50 [1]: 200 nM
- Activity [2]: Active
- Kd [3]: 2630 nM
- Kinact [4]: 14.2 min⁻¹
- inhibition [5]: Active
- ΔTm [6]: < 1 °C
- Kd [7]: 560 nM
- Activity [8]: Active; Mass Peak Of 28,181.6 Da Observed
- Activity [9]: 22.22%
- Activity [10]: 12%
- IC50 [11]: 480 nM
- inhibition [12]: inactive
- Ki [13]: 410 nM
- IC50 [14]: 580 nM
- Activity [15]: 1.2%
- inhibition [16]: Active
- Kd [17]: 27600 nM
- Activity [18]: 68.23%
- Activity [19]: Active
- IC50 [20]: 170 nM
- IC50 [21]: 280 nM
- inhibition [22]: Active
- Tm [23]: 49.9 °C
- Ratio IC50 [24]: 20
- Activity [25]: 73.67%
- TDI [26]: Active
- Ratio IC50 [27]: 20
- IC50 [28]: 780 nM
